Where “and” joins values, the source holds several entries; their conditions need not be identical. Equal values may be shown once.
Experiments:
[1] = test system: human donor dispersed islet cells; experiment: Insulin secretion from healthy human donor dispersed islet cells; type: cell-based; design: Insulin secretion: unit not given here
Protocol: Pancreata of nondiabetic C57BL/6J mice were digested using collagenase P (Roche Diagnostics, catalog 11213873001), and islets were manually picked up using a stereomicroscope (ZEISS Stemi 305). […] Isolated mouse islets or provided human islets were dispersed as described ([28]). Briefly, 100–120 islets were washed 2 times using modified HBSS, then dispersed in 600 μL Accutase (Innovative Cell Technologies, catalog AT-104) by gently pipetting up and down for 7 minutes at 37°C. […] Following refreshing of KRBH, cells were dispensed in 8 microfuge tubes (2,000 cells/tube) and treated with WCDD301, preclustered Ephrin-A5 Fc, or preclustered Fc in the presence or absence of the competitive inhibitor of EphA4 receptor, rhyncophylline ([60]) (MilliporeSigma, catalog SML2345). In the presence or absence of these effectors, secretion assay was performed sequentially as shown in Supplemental Table 5. […] Preclustering of Ephrin-A5 Fc was done by mixing Ephrin-A5 Fc or Fc alone (BioLegend, catalog 790102) with anti-Fc antibody (Invitrogen, catalog A16086) (1:10 molar ratio) 20 minutes before treatment ([62]). […] Shedding of cleaved EphA4 was measured from the cell culture medium. Experiments were performed by dispersion of 200 islets, and EphA4 levels in media were measured by EphA4 ELISA (ABclonal, catalog RK06572).
(§1) The Integrated Islet Distribution Program provided us human donor islets with their characteristics (Supplemental Table 6). Islets were centrifuged at 500g for 3 minutes, resuspended in CMRL 1066 medium (Gibco, catalog 1150-037) containing 11 mM glucose, and rested in an incubator overnight.
(§2) For the hormone secretion assay, islets or dispersed islet cells were adapted in KRBH buffer containing 11 mM glucose for 1 hour. Then, after 2 washes in HBSS containing 11 mM glucose, islets or cells were treated in the following sequential order in the presence or absence of WCDD301: incubation in KRBH (1 mM glucose, 30 minutes) followed by medium collection, incubation in KRBH (11 mM glucose, 30 minutes) followed by medium collection.

[2] = test system: isolated islets of donors with T1D; experiment: Insulin secretion from isolated islets of donors with T1D; type: cell-based, human; details: for Secretion of insulin: isolated islets, T1D donors, one value per donor, Figure 2I;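 for Secretion of insulin: insulin concentration in collected medium by Lumit immunoassay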
Protocol: as §1, §2

diabetic NOD mice = experiment: Plasma somatostatin in NOD mice; type: in vivo, mouse; design: unit not given beside the values; details: WCDD301 group of NOD mice; quantity not given
Protocol: Terminal blood was collected into microfuge tubes containing K2-EDTA (supplemented by 45 mM phenylmethylsulphonyl fluoride and 0.77 μM aprotinin) through cardiac puncture. Plasma was separated by centrifugation (2,000g for 10 minutes at 4°C) and kept at –80°C until analysis. Plasma samples with hemolysis were excluded from the study. […] Values of BUN, creatinine, ALB, ALT, and AST were determined by a Roche Cobas C501 Autoanalyzer as performed by the Washington University Diabetes Research Center Translational Diagnostics Core. Reference intervals of blood chemistry parameters for inbred NOD mice were extracted from the Mouse Phenome Database (https://phenome.jax.org/).

nondiabetic NOD mice = experiment: Blood glucose in nondiabetic NOD mice under WCDD301 dosing; type: in vivo, mouse; design: Blood glucose (Supplemental Figure 6B): unit: mg/dL; details: for Blood glucose (Supplemental Figure 6B): WCDD301-treated, individual mice M1-M5
Protocol: We applied the following therapeutic regimens in the fed state for oral dosing of pearls containing WCDD301. The therapeutic regimen for diabetic NOD mice with moderate hyperglycemia (n = 6–9; 6 females/3 males) or nondiabetic ones with blood glucose levels of < 140 mg/dL (females, n = 5) was dose 7.5 mg/kg, dosage once a day, and excipient SAIB-Agar, 50–60 mg. The therapeutic regimen for STZ-induced diabetic mice with early severe hyperglycemia (n = 3, placebo group; n = 4 treatment group, females) was dose 10 mg/kg, dosage once a day, and excipient SAIB-Agar-malic acid, 50–60 mg.

[3] = test system: mouse dispersed islet cells; experiment: Immunofluorescence: F-actin intensity in glucagon+ mouse dispersed islet cells; type: cell-based;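 for F-actin intensity: ImageJ intensity within ROI drawn around each glucagon+ cell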
Protocol: Coverslips were treated with WCDD301, preclustered Ephrin-A5 Fc, or preclustered Fc in the following sequential order: KRBH (11 mM glucose, 30 minutes), KRBH (1 mM glucose, 60 minutes), KRBH (1 mM glucose, 30 minutes), and KRBH (11 mM glucose, 60 minutes). After treatment, coverslips were washed once in PBS, fixed in 2% paraformaldehyde in PBS (30 minutes), and again washed in PBS. […] Following wash in PBS, coverslips were incubated in a mixture of Alexa Fluor 555 Phalloidin (Cell Signaling Technology, catalog 8953) and secondary antibodies (goat anti-rabbit Alexa Fluor 488, catalog A-21094, 1:1,000, Molecular Probes; and goat anti-mouse Alexa Fluor 633, catalog A21052, 1:1,000, Life Technologies) for 1 hour at RT. Both primary and secondary antibodies were diluted in blocking buffer containing 0.05% Tween 20. Coverslips were washed using PBS and counterstained by using DAPI (1:1,000) for 10 minutes. Following 2 washes in PBS, coverslips were mounted on glass slides using ProLong Glass Antifade Mountant (Invitrogen, catalog P36980). Images were captured using the Zeiss LSM880 microscope with a Plan-Apochromat 63× 1.4 NA objective lens by setting dual-band dichroic/filter for 405, 488, 561, and 633 nm laser excitation. For each slide, 25–30 fields of view were scanned, and in each field of view, 3–5 cells were imaged. […] Values of intensity were compared among groups using 1-way ANOVA, α = 0.05.

[4] = Glucose (1 mM), WCDD301 0.75 µM
[5] = Glucose (11 mM), WCDD301 0.75 µM
[6] = Glucose (11 mM), WCDD301 1.5 µM

In the case of `CC(=O)OCC(N)(COC(C)=O)COC(C)=O` [WCDD301, 2-(acetoxymethyl)-2-aminopropane-1,3-diyl diacetate], the “Effect on insulin secretion” value ([1]; 1, 3 or 6 hours exposure) is reported as “transient effect”, the Insulin secretion ([1]; 1 hour exposure, WCDD301 0.75 µM, 1 mM (first group), Figure 2D) is reported as 0.23 and 0.21 and 0.2 and the Insulin secretion ([1]; 1 hour exposure, WCDD301 0.75 µM, head printed 1 mM (second group c4-c7), Figure 2D) is reported as 0.277 and 0.233 and 0.25. The Insulin secretion ([1]; 1 hour exposure, WCDD301 1.5 µM, 1 mM (first group), Figure 2D) was 0.247 and 0.17 and 0.22, the Insulin secretion ([1]; 1 hour exposure, WCDD301 1.5 µM, head printed 1 mM (second group c4-c7), Figure 2D) was 0.299 and 0.278 and 0.26 and the Insulin secretion ([1]; 1 hour exposure, WCDD301 3 µM, 1 mM (first group), Figure 2D) was 0.133 and 0.134 and 0.23. For the same compound, the Insulin secretion ([1]; 1 hour exposure, WCDD301 3 µM, head printed 1 mM (second group c4-c7), Figure 2D) was 0.196 and 0.199 and 0.27, the Insulin secretion ([1]; 3 hours exposure, WCDD301 0.75 µM, 1 mM (first group), Figure 2E) was 0.188 and 0.216 and 0.2 and the Insulin secretion ([1]; 3 hours exposure, WCDD301 0.75 µM, head printed 1 mM (second group c4-c7), Figure 2E) was 0.279 and 0.305 and 0.31. For the same compound, the Insulin secretion ([1]; 3 hours exposure, WCDD301 1.5 µM, 1 mM (first group), Figure 2E) was 0.156 and 0.166 and 0.2, the Insulin secretion ([1]; 3 hours exposure, WCDD301 1.5 µM, head printed 1 mM (second group c4-c7), Figure 2E) was 0.227 and 0.252 and 0.3 and the Insulin secretion ([1]; 3 hours exposure, WCDD301 3 µM, 1 mM (first group), Figure 2E) was 0.23 and 0.247 and 0.22. For the same compound, the Insulin secretion ([1]; 3 hours exposure, WCDD301 3 µM, head printed 1 mM (second group c4-c7), Figure 2E) was 0.249 and 0.253 and 0.31, the Insulin secretion ([1]; 6 hours exposure, WCDD301 0.75 µM, 1 mM (first group), Figure 2F) was 0.248 and 0.23 and 0.252 and the Insulin secretion ([1]; 6 hours exposure, WCDD301 0.75 µM, head printed 1 mM (second group c4-c7), Figure 2F) was 0.383 and 0.391 and 0.37. The Insulin secretion ([1]; 6 hours exposure, WCDD301 1.5 µM, 1 mM (first group), Figure 2F) was 0.257 and 0.265 and 0.24, the Insulin secretion ([1]; 6 hours exposure, WCDD301 1.5 µM, head printed 1 mM (second group c4-c7), Figure 2F) was 0.41 and 0.395 and 0.38 and the Insulin secretion ([1]; 6 hours exposure, WCDD301 3 µM, 1 mM (first group), Figure 2F) was 0.185 and 0.176 and 0.25. The Insulin secretion ([1]; 6 hours exposure, WCDD301 3 µM, head printed 1 mM (second group c4-c7), Figure 2F) was 0.327 and 0.324 and 0.4, the “Insulin secretion (Supplemental Figure 4A; quantity not given)” value [1, 4] was 14.24 and 14.812 and 14.5 and the “Insulin secretion (Supplemental Figure 4B; quantity not given)” value [1, 4] was 12.664 and 13.794 and 14. For the same compound, the “Insulin secretion (Supplemental Figure 4C; quantity not given)” value [1, 4] was 11.67 and 7.26 and 14, the “Insulin secretion (Supplemental Figure 4A; quantity not given)” value ([1]; Glucose (1 mM), WCDD301 1.5 µM) was 17.532 and 20.466 and 12 and the “Insulin secretion (Supplemental Figure 4B; quantity not given)” value ([1]; Glucose (1 mM), WCDD301 1.5 µM) was 15.67 and 15.802 and 13.5. For the same compound, the “Insulin secretion (Supplemental Figure 4C; quantity not given)” value ([1]; Glucose (1 mM), WCDD301 1.5 µM) was 13.328 and 14.218 and 10, the “Insulin secretion (Supplemental Figure 4A; quantity not given)” value ([1]; Glucose (1 mM), WCDD301 3 µM) was 16.564 and 14.55 and 11.5 and the “Insulin secretion (Supplemental Figure 4B; quantity not given)” value ([1]; Glucose (1 mM), WCDD301 3 µM) was 18.692 and 16.896 and 14. For the same compound, the “Insulin secretion (Supplemental Figure 4C; quantity not given)” value ([1]; Glucose (1 mM), WCDD301 3 µM) was 12.61 and 13.59 and 9, the “Insulin secretion (Supplemental Figure 4A; quantity not given)” value [1, 5] was 22.29 and 19.8308 and 21 and the “Insulin secretion (Supplemental Figure 4B; quantity not given)” value [1, 5] was 16.996 and 15.584 and 14.5. For the same compound, the “Insulin secretion (Supplemental Figure 4A; quantity not given)” value [1, 6] was 29.994 and 17.548 and 22, the “Insulin secretion (Supplemental Figure 4B; quantity not given)” value [1, 6] was 19.714 and 16.496 and 13 and the “Insulin secretion (Supplemental Figure 4A; quantity not given)” value ([1]; Glucose (11 mM), WCDD301 3 µM) was 17.376 and 17.746 and 23. For the same compound, the “Insulin secretion (Supplemental Figure 4B; quantity not given)” value ([1]; Glucose (11 mM), WCDD301 3 µM) was 17.584 and 17.686 and 13, the “Insulin secretion (Supplemental Figure 4C; quantity not given)” value ([1]; Glucose (11 mM), WCDD301 3 µM) was 16.66 and 13.592 and 8.5 and the “Effect on insulin secretion” value ([2]; islets from donors with long-standing T1D) was “no effect on the minimal residual insulin secretion”. The Secretion of insulin ([2]; 1 mM glucose) was 0.055 and 0.09, the Secretion of insulin ([2]; 11 mM glucose) was 0.07 and 0.06 and the “Plasma somatostatin (Figure 7C)” value (diabetic NOD mice) was 310.49 and 318.85 and 327.2 and 342.5. The “Development of diabetes, prophylactic administration” value (nondiabetic NOD mice; NOD mice) was “appears to prevent the development of diabetes in NOD mice”, the “Blood glucose (Supplemental Figure 6B)” value (nondiabetic NOD mice; Age (week) 10) was 127 and 120 and 125 and 115 and 118 and the “Blood glucose (Supplemental Figure 6B)” value (nondiabetic NOD mice; Age (week) 19) was 128 and 122 and 121 and 112 and 126. For the same compound, the Effect on euglycemia (nondiabetic NOD mice; nondiabetic NOD mice, Supplemental Figure 6B) was “nor did it affect euglycemia”, the “Effect on intracellular F-actin” value ([3]; dispersed mouse islet cells) was “increased intracellular F-actin intensity” and the F-actin intensity ([3]; mouse cells, individual values, Figure 3F) was 7.9 and 8.3 and 9.3 and 13.4 and 7.5 and 18.4 and 8.1 and 17.0.
